Results reported in ChEMBL document CHEMBL1122856, “Study on the inhibition of adenosine deaminase” (J Med Chem, 1985).

Target: T1, Adenosine deaminase (Bos taurus, UniProt P56658)
T1 sequence (P56658 whole entry): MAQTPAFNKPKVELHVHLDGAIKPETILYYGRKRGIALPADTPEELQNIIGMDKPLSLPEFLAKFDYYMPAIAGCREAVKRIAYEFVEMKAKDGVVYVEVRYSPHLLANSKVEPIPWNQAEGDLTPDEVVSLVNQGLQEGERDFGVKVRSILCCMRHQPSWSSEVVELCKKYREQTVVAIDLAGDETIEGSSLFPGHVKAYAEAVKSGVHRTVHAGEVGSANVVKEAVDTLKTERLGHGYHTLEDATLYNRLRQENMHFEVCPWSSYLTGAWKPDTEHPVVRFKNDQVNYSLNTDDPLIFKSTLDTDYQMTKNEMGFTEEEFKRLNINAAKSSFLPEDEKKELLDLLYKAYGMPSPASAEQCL
Assay: Ability to inhibit the deamination of adenosine by calf intestine adenosine deaminase

Ki: 61 µM
SMILES: Cc1c([C@@H](C)O)ncn1C1O[C@H](CO)[C@@H](O)[C@H]1O (stereo partly specified)
